Measurements: patent US20230106592A1, “METHOD FOR TREATING CANCER USING A COMBINATION OF DNA DAMAGING AGENTS AND ATR INHIBITORS” (Vertex Pharmaceuticals Incorporated, priority 2015, published 2023)

Assay: Phase I trial, combination with carboplatin: adverse events and DLTs
Format: in vivo, human
Procedure: Pts with advanced solid tumors enrolled in 2 sequential parts.
In part A, single pt cohorts received a compound of Formula A-2 once weekly in 21-day cycles with 3+3 dose escalation cohorts being implemented if grade 2 drug-related adverse events (AEs) occurred. […] If a DLT was reported, the cohort was expanded to include 3 additional pts with subsequent dose escalation being permitted if no further DLTs occurred. Paired pre- and post-treatment biopsies from selected pts in part B were assessed for pCHK1 levels by immunohistochemistry. Models based on preclinical and clinical data were used to simulate hematologic toxicities and pCHK1 inhibition for pts treated with a compound of Formula A-2 and CP.

[1] = A-2 90 mg/m2 + Carboplatin AUC 5 (n = 3)
[2] = A-2 90 mg/m^2 + Carboplatin AUC5 (N = 6)
[3] = A-2 120 mg/m2 + Carboplatin AUC 4 (n = 3)
[4] = A-2 120 mg/m2 + Carboplatin AUC 5 (n = 3)
[5] = A-2 120 mg/m^2 + Carboplatin AUC4 (N = 3)

CNCc1ccc(-c2cc(-c3nc(-c4ccc(S(=O)(=O)C(C)C)cc4)cnc3N)on2)cc1 [Compound A-2]
Treatment related adverse event: Alopecia, All Grades [1]: 2 (20.0) n (%) | Treatment related adverse event: Alopecia, Grade ≥ 3 [1]: 0 n (%) | Treatment related adverse event: Anemia, All Grades [1]: 4 (40.0) n (%) | Treatment related adverse event: Anemia, Grade ≥ 3 [1]: 0 n (%) | Treatment related adverse event: Any Event, All Grades [1]: 9 (90.0) n (%) | Treatment related adverse event: Any Event, Grade ≥ 3 [1]: 1 (10.0) n (%) | Treatment related adverse event: Fatigue, All Grades [1]: 4 (40.0) n (%) | Treatment related adverse event: Fatigue, Grade ≥ 3 [1]: 0 n (%) | Treatment related adverse event: Flushing, All Grades [1]: 1 (10.0) n (%) | Treatment related adverse event: Flushing, Grade ≥ 3 [1]: 0 n (%) | Treatment related adverse event: Headache, All Grades [1]: 0 n (%) | Treatment related adverse event: Headache, Grade ≥ 3 [1]: 0 n (%) | Treatment related adverse event: Hypersensitivity, All Grades [1]: 0 n (%) | Treatment related adverse event: Hypersensitivity, Grade ≥ 3 [1]: 0 n (%) | Treatment related adverse event: Infusion related reaction, All Grades [1]: 1 (10.0) n (%) | Treatment related adverse event: Infusion related reaction, Grade ≥ 3 [1]: 0 n (%) | Treatment related adverse event: Nausea, All Grades [1]: 3 (30.0) n (%) | Treatment related adverse event: Nausea, Grade ≥ 3 [1]: 0 n (%) | Treatment related adverse event: Neuropathy peripheral, All Grades [1]: 0 n (%) | Treatment related adverse event: Neuropathy peripheral, Grade ≥ 3 [1]: 0 n (%) | Treatment related adverse event: Neutropenia, All Grades [1]: 3 (30.0) n (%) | Treatment related adverse event: Neutropenia, Grade ≥ 3 [1]: 1 (10.0) n (%) | Treatment related adverse event: Pruritus, All Grades [1]: 1 (10.0) n (%) | Treatment related adverse event: Pruritus, Grade ≥ 3 [1]: 0 n (%) | Treatment related adverse event: Thrombocytopenia, All Grades [1]: 2 (20.0) n (%) | Treatment related adverse event: Thrombocytopenia, Grade ≥ 3 [1]: 0 n (%) | Treatment related adverse event: Vomiting, All Grades [1]: 0 n (%) | Treatment related adverse event: Vomiting, Grade ≥ 3 [1]: 0 n (%) | Treatment related adverse event: Alopecia, All [2]: 2 | Treatment related adverse event: Alopecia, ≥3 [2]: 0 | Treatment related adverse event: Anemia, All [2]: 3 | Treatment related adverse event: Anemia, ≥3 [2]: 0 | Treatment related adverse event: Fatigue, All [2]: 3 | Treatment related adverse event: Fatigue, ≥3 [2]: 0 | Treatment related adverse event: Flushing, All [2]: 0 | Treatment related adverse event: Flushing, ≥3 [2]: 0 | Treatment related adverse event: Headache, All [2]: 0 | Treatment related adverse event: Headache, ≥3 [2]: 0 | Treatment related adverse event: Hypertension, All [2]: 0 | Treatment related adverse event: Hypertension, ≥3 [2]: 0 | Treatment related adverse event: Nausea, All [2]: 1 | Treatment related adverse event: Nausea, ≥3 [2]: 0 | Treatment related adverse event: Neuropathy peripheral, All [2]: 0 | Treatment related adverse event: Neuropathy peripheral, ≥3 [2]: 0 | Treatment related adverse event: Neutropenia, All [2]: 2 | Treatment related adverse event: Neutropenia, ≥3 [2]: 1 | Treatment related adverse event: Respiratory tract infection, ≥3 [2]: 0 | Treatment related adverse event: Thrombocytopenia, All [2]: 2 | Treatment related adverse event: Thrombocytopenia, ≥3 [2]: 0 | Treatment related adverse event: Vomiting, All [2]: 0 | Treatment related adverse event: Vomiting, ≥3 [2]: 0 | Treatment related adverse event: Alopecia, All Grades [3]: 0 n (%) | Treatment related adverse event: Alopecia, Grade ≥ 3 [3]: 0 n (%) | Treatment related adverse event: Anemia, All Grades [3]: 1 (33.3) n (%) | Treatment related adverse event: Anemia, Grade ≥ 3 [3]: 0 n (%) | Treatment related adverse event: Any Event, Grade ≥ 3 [3]: 0 n (%) | Treatment related adverse event: Fatigue, All Grades [3]: 0 n (%) | Treatment related adverse event: Fatigue, Grade ≥ 3 [3]: 0 n (%) | Treatment related adverse event: Flushing, All Grades [3]: 1 (33.3) n (%) | Treatment related adverse event: Flushing, Grade ≥ 3 [3]: 0 n (%) | Treatment related adverse event: Headache, All Grades [3]: 0 n (%) | Treatment related adverse event: Headache, Grade ≥ 3 [3]: 0 n (%) | Treatment related adverse event: Hypersensitivity, All Grades [3]: 0 n (%) | Treatment related adverse event: Hypersensitivity, Grade ≥ 3 [3]: 0 n (%) | Treatment related adverse event: Infusion related reaction, All Grades [3]: 0 n (%) | Treatment related adverse event: Infusion related reaction, Grade ≥ 3 [3]: 0 n (%) | Treatment related adverse event: Nausea, All Grades [3]: 1 (33.3) n (%) | Treatment related adverse event: Nausea, Grade ≥ 3 [3]: 0 n (%) | Treatment related adverse event: Neuropathy peripheral, All Grades [3]: 0 n (%) | Treatment related adverse event: Neuropathy peripheral, Grade ≥ 3 [3]: 0 n (%) | Treatment related adverse event: Neutropenia, All Grades [3]: 0 n (%) | Treatment related adverse event: Neutropenia, Grade ≥ 3 [3]: 0 n (%) | Treatment related adverse event: Pruritus, All Grades [3]: 1 (33.3) n (%) | Treatment related adverse event: Pruritus, Grade ≥ 3 [3]: 0 n (%) | Treatment related adverse event: Thrombocytopenia, All Grades [3]: 1 (33.3) n (%) | Treatment related adverse event: Thrombocytopenia, Grade ≥ 3 [3]: 0 n (%) | Treatment related adverse event: Vomiting, All Grades [3]: 0 n (%) | Treatment related adverse event: Vomiting, Grade ≥ 3 [3]: 0 n (%) | Treatment related adverse event: Alopecia, All Grades [4]: 0 n (%) | Treatment related adverse event: Alopecia, Grade ≥ 3 [4]: 0 n (%) | Treatment related adverse event: Anemia, Grade ≥ 3 [4]: 0 n (%) | Treatment related adverse event: Any Event, All Grades [4]: 3 (100) n (%) | Treatment related adverse event: Fatigue, All Grades [4]: 1 (33.3) n (%) | Treatment related adverse event: Fatigue, Grade ≥ 3 [4]: 0 n (%) | Treatment related adverse event: Flushing, All Grades [4]: 0 n (%) | Treatment related adverse event: Flushing, Grade ≥ 3 [4]: 0 n (%) | Treatment related adverse event: Headache, All Grades [4]: 0 n (%) | Treatment related adverse event: Headache, Grade ≥ 3 [4]: 0 n (%) | Treatment related adverse event: Hypersensitivity, All Grades [4]: 1 (33.3) n (%) | Treatment related adverse event: Hypersensitivity, Grade ≥ 3 [4]: 1 (33.3) n (%) | Treatment related adverse event: Infusion related reaction, All Grades [4]: 1 (33.3) n (%) | Treatment related adverse event: Infusion related reaction, Grade ≥ 3 [4]: 0 n (%) | Treatment related adverse event: Nausea, Grade ≥ 3 [4]: 0 n (%) | Treatment related adverse event: Neuropathy peripheral, All Grades [4]: 0 n (%) | Treatment related adverse event: Neuropathy peripheral, Grade ≥ 3 [4]: 0 n (%) | Treatment related adverse event: Neutropenia, Grade ≥ 3 [4]: 1 (33.3) n (%) | Treatment related adverse event: Pruritus, All Grades [4]: 0 n (%) | Treatment related adverse event: Pruritus, Grade ≥ 3 [4]: 0 n (%) | Treatment related adverse event: Thrombocytopenia, All Grades [4]: 1 (33.3) n (%) | Treatment related adverse event: Thrombocytopenia, Grade ≥ 3 [4]: 0 n (%) | Treatment related adverse event: Vomiting, All Grades [4]: 0 n (%) | Treatment related adverse event: Vomiting, Grade ≥ 3 [4]: 0 n (%) | Treatment related adverse event: Alopecia, All [5]: 0 | Treatment related adverse event: Alopecia, ≥3 [5]: 0 | Treatment related adverse event: Anemia, All [5]: 1 | Treatment related adverse event: Anemia, ≥3 [5]: 0 | Treatment related adverse event: Fatigue, All [5]: 0 | Treatment related adverse event: Fatigue, ≥3 [5]: 0 | Treatment related adverse event: Flushing, All [5]: 1 | Treatment related adverse event: Flushing, ≥3 [5]: 0 | Treatment related adverse event: Headache, All [5]: 0 | Treatment related adverse event: Headache, ≥3 [5]: 0 | Treatment related adverse event: Hypertension, All [5]: 0 | Treatment related adverse event: Hypertension, ≥3 [5]: 0 | Treatment related adverse event: Nausea, All [5]: 1 | Treatment related adverse event: Nausea, ≥3 [5]: 0 | Treatment related adverse event: Neuropathy peripheral, All [5]: 0 | Treatment related adverse event: Neuropathy peripheral, ≥3 [5]: 0 | Treatment related adverse event: Neutropenia, All [5]: 0 | Treatment related adverse event: Neutropenia, ≥3 [5]: 0 | Treatment related adverse event: Respiratory tract infection, All [5]: 0 | Treatment related adverse event: Respiratory tract infection, ≥3 [5]: 0 | Treatment related adverse event: Thrombocytopenia, All [5]: 1 | Treatment related adverse event: Thrombocytopenia, ≥3 [5]: 0
